Patent EP0071892A2, “Phospholipid derivatives, process for preparation thereof and pharmaceutical composition of the same” (priority 1981, dated 1983)
Read-outs that look alike come from different tables or passages of the source.

Columns and labels:
Fibrosarcoma Meth A [1] = test: Test Method B: intrapleurally inoculated Meth A tumor in mice, injection into pleural cavity, mean survival time; format: in vivo, BALB/c mice; parameters: dose or concentration left out as unconfirmed; conditions: for Anti-tumor activity (%) *d: comparison of mean survival time of medicated group (T) and control group (C), into pleural cavity three times; for Mean survival time: into pleural cavity three times (before 14 days, after 1 hour and after 3 days of tumor implantation), 5 x 10^5 Meth A cells intrapleurally
Procedure: Groups of eight female BALB/c mice, aged 8-9 weeks and weighing 18.0-22.5 g were used.
Fibrosarcoma Meth A (hereinafter referred to as Meth A) was successively transferred every 7 days into BALB/c mice by intraperitoneal inoculation of the ascites cells thereof and the Meth A in the ascites cells as harvested 6 or 7 days after the inoculation was used as tumor cells.
Each of the BALB/c mice was inoculated intrapleurally with 5 x 10^5 Meth A cells in 0.1 ml Hanks solution.
Test compound was dissolved in phosphate buffer saline solution, and was injected into pleural cavity to each of the mice in doses of 100 pg/0.05 ml/mouse three times, i.e. before 14 days, after 1 hour and after 3 days of tumor implantation.
The antitumor activity of the test compound was estimated by comparing mean survival time of the two groups. • T : Mean survival time of the medicated group • C : Mean survival time of the control group

Fibrosarcoma Meth A [2] = test: Test Method A: intradermally inoculated Meth A tumor in mice, intratumoral injection of test compound, tumor growth inhibition; format: in vivo, BALB/c mice; conditions: 100 µg/mouse intratumorally once daily from Day 1 to Day 4 postimplant; for responders at 0.1 mg / inhibition in vivo at 0.1 mg: Meth-A; for responders at 0.1 mg: read-out: Ratio of tumor free mice [Number of tumor free mice/ Number of mice used as a group] (converted); for inhibition in vivo at 0.1 mg: Mus musculus, read-out: Tumor growth inhibition (%) [(1-T/c)x100]; for Mean of two diameters of the growing tumor: 1 x 10^5 Meth A cells intradermally
Procedure: Groups of six female BALB/c mice, aged 12 weeks and weighing 19 - 21 g were used.
Fib,rosarcoma Meth A (hereinafter referred to as Meth A) was successively transferred every 7 days into BALB/c mice by intraperitoneal inoculation of the ascites cells thereof and the Meth A in the ascites cells as harvested 6 days after the inoculation was used as tumor cells.
Each of the BALB/c mice was inoculated intradermally with 1 x 10^5 Meth A cells in 0.05 ml Hanks solution.
Test compound was dissolved in 0.5% methylcellulose saline solution, and was intratumorally injected to each of the mice in doses of 100 µg/mouse once daily from Day 1 to Day 4 postimplant.
The control group was given with a vehicle alone in the same way.
The antitumor effectiveness of the test compound was estimated by tumor growth inhibition (1-T/C). • T: Mean diameter of the growing tumor of the medicated group • C: Mean diameter of the growing tumor of the control group

| Structure (SMILES) | Anti-tumor activity (%) *d (Fibrosarcoma Meth A [1]) [%] | Mean survival time (Fibrosarcoma Meth A [1]) [days] | Ratio of tumor free mice [Number of tumor free mice/ Number of mice used as a group] (Fibrosarcoma Meth A [2]; Day 21) | responders at 0.1 mg (Fibrosarcoma Meth A [2]; Day 14) [%] | inhibition in vivo at 0.1 mg (Fibrosarcoma Meth A [2]; Day 14) [%] | inhibition in vivo at 0.1 mg (Fibrosarcoma Meth A [2]; Day 21) [%] | further results |
| --- | --- | --- | --- | --- | --- | --- | --- |
| CCCCCCCCCCCCCCCCOCC(COP(=O)(O)OCCN1CCN(C)CC1)OC (racemic) [3-(2), (rac)-1-0-Hexadecyl-2-0-methyl-glycerol-3-[2-(4-methyl-l-piperazinyl)ethyl]phosphate] | 350 | 21.0 |  |  |  |  |  |
| CCCCCCCCCCCCCCCCCCOCC(COP(=O)(O)OCCN1CCN(CC)CC1)OC (racemic) [3-(3), (rac)-1-0-Octadecyl-2-0-methyl-glycerol-3-[2-(4-ethyl-l-piperazinyl)ethyl]phosphate] | 317 | 19.0 |  |  |  |  |  |
| CCCCCCCCCCCCCCCCCCOCC(COP(=O)(O)OCCN1CCN(CCO)CC1)OC (racemic) [3-(7), (rac)-1-0-Octadecyl-2-0-methyl-glycerol-3-[2-[4-(2-hydroxyethyl)-1-piperazinyl]ethyl]phosphate] | 325 | 19.5 |  |  |  |  |  |
| CCCCCCCCCCCCCCCCCCOCC(COP(=O)([O-])OCC[n+]1ccc(C)cc1)OC (racemic) [3-(9), (rac)-1-0-Octadecyl-2-0-methyl-glycerol-3-[2-(4-methyl-l-pyridinio)ethyl]phosphate] | 350 | 21.0 |  |  |  |  |  |
| CCCCCCCCCCCCCCCCCCOCC(COP(=O)([O-])OCC[n+]1cccc(C)c1)OC (racemic) [3-(10), (rac)-1-0-Octadecyl-2-0-methyl-glycerol-3-(2-(3-methyl-1-pyridinio)ethyl]phosphate] | 364 | 25.5 |  |  |  |  |  |
| CCCCCCCCCCCCCCCCCCOCC(COP(=O)([O-])OCC[n+]1ccccn1)OC (racemic) [3-(12), (rac)-1-0-Octadecyl-2-0-methyl-glycerol-3-[2-(1-pyridazinio)ethyl]phosphate] | 333 | 20.0 |  |  |  |  |  |
| CCCCCCCCCCCCCCCCCCOCC(COP(=O)(O)OCCn1ccnc1)OC (racemic) [3-(13), (rac)-1-0-Octadecyl-2-0-methyl-glycerol-3-[2-(1-imidazolyl)ethyl]phosphate] |  |  | 0/6 | 0 | 37 | 31 |  |
| CCCCCCCCCCCCCCCCCCOCC(COP(=O)(O)OCCN1CCCCC1)OC (racemic) [3-(14), (rac)-l-O-Octadecyl-2-0-methyl-glycerol-3-(2-piperidinoethyl)phosphate] | 325 | 19.5 |  |  |  |  |  |
| CCCCCCCCCCCCCCCCCCOCC(COP(=O)(O)OCCN1CCN(C)CC1)OC (racemic) [3-(16), (rac)-1-O-Octadecyl-2-0-methyl-glycerol-3-[2-(4-methyl-l-piperazinyl)ethyl]phosphate] | 350 | 21.0 |  |  |  |  |  |
| CCCCCCCCCCCCCCCCCCOCC(COP(=O)([O-])OCC[n+]1cccn1C)OC (racemic) [3-(18), (rac)-1-0-Octadecyl-2-0-methyl-glycerol-3-[2-(1-methyl-2-pyrazolio)ethyl]phosphate] | 325 | 19.5 |  |  |  |  |  |
| CCCCCCCCCCCCCCCCCCOCC(COP(=O)([O-])OCC[n+]1ccccc1)OCC (racemic) [3-(19), (rac)-1-0-Octadecyl-2-0-ethyl-glycerol-3-[2-(1-pyridinio)ethyl]phosphate] | 317 | 19.0 |  |  |  |  |  |
| CCCCCCCCCCCCCCCCCCOCC(COP(=O)([O-])OCC[n+]1cnn(C)c1)OC (racemic) [3-(21), (rac)-1-0-Octadecyl-2-0-methyl-glycerol-3-[2-(1-methyl-1,2,4-triazol-4-io)ethyl]phosphate] |  |  | 6/6 | 100 | 100 | 100 | Mean of two diameters of the growing tumor (Fibrosarcoma Meth A [2]; Day 14): 0 mm; Mean of two diameters of the growing tumor (Fibrosarcoma Meth A [2]; Day 21): 0 mm |
| CCCCCCCCCCCCCCCCCCOCC(COP(=O)([O-])OCC[n+]1ccsc1)OC (racemic) [3-(22), (rac)-1-O-Octadecyl-2-0-methyl-glycerol-3-[2-(3-thiazolio)ethyl]phosphate] |  |  | 3/6 | 50 | 77 | 68 |  |
| CCCCCCCCCCCCCCCCCCOCC(COP(=O)([O-])OCC[n+]1cccc(C(=O)OCC)c1)OC (racemic) [3-(23), (rac)-1-0-Octadecyl-2-0-methyl-glycerol-3-[2-(3-ethoxycarbonyl-1-pyridinio)ethyl]phosphate] |  |  | 3/6 | 50 | 77 | 70 |  |
| CCCCCCCCCCCCCCCCCCOCC(COP(=O)([O-])OCC[n+]1ccn(C)c1)OC (racemic) [3-(25), (rac)-1-0-Octadecyl-2-0-methyl-glycerol-3-[2-(1-methyl-3-imidazolio)ethyl]phosphate] |  |  | 5/6 | 83.3 | 94 | 93 |  |
| CCCCCCCCCCCCCCCCOCC(COP(=O)([O-])OCC[n+]1ccccc1)OCc1ccccc1 (racemic) [3-(26), (rac)-l-0-Hexadecyl-2-0-benzyl-glycerol-3-[2-(l-pyridinio)ethyl]phosphate] | >650 | >39.0 |  |  |  |  |  |
| CCCCCCCCCCCCCCCCCCOCC(O)COP(=O)([O-])OCC[n+]1ccccc1 (racemic) [3-(30), (rac)-1-0-Octadecyl-glycerol-3-[2-(1-pyridinio)ethyl]-phosphate] |  |  | 4/6 | 66.7 | 85 | 84 |  |
| CCCCCCCCCCCCCCCCCCOCC(COP(=O)([O-])OCC[n+]1ccccc1)SC (racemic) [3-(31), (rac)-1-0-Octadecyl-2-methylthio-1,3-propanediol-3-[2-(l-pyridinio)ethyl]phosphate] | 358 | 21.5 |  |  |  |  |  |
| CCCCCCCCCCCCCCCCCCOCC(COP(=O)([O-])OCCNC(=O)C[n+]1ccccc1)OC (racemic) [5-(2), (rac)-1-0-Octadecyl-2-0-methyl-glycerol-3-[2-(1-pyridinioacetylamino)ethyl]phoshate] | 364 | 25.5 |  |  |  |  |  |
| CCCCCCCCCCCCCCCCCCOCC(COP(=O)([O-])OCC[n+]1ccccc1)Sc1nncs1 (racemic) [8-(4), (rac)-1-0-Octadecyl-2-(1,3,4-thiadiazolyl-2-thio)-1,3-propanediol-3-[2-(1-pyridinio)ethyl]phosphate] | 417 | 25.0 |  |  |  |  |  |
| CCCCCCCCCCCCCCCCCCOCC(Cl)COP(=O)([O-])OCC[n+]1ccccc1 (racemic) [9-(4), (rac)-1-0-Octadecyl-2-chloro-1,3-propanediol-3-[2-(1-pyridinio)ethyl]phosphate] |  |  | 4/6 | 66.7 | 92 | 86 |  |
